# Laboratory results published in US12396983B2, “Composition comprising rilmenidine compound as active ingredient for treatment of fragile X syndrome or related developmental disability” (NEUROVENTI, priority 2020, dated 2025).
# Legend:
# [1] = tested on: animal model lacking Cntnap2; test: three-chamber test, social preference (novel vs familiar mouse) in Cntnap2-deficient autism animal model; format: in vivo; details: Cntnap2-deficient mice treated with rilmenidine, FIG. 5
# Description: To confirm the therapeutic effect of rilmenidine on social deficits, one of the phenotypes of developmental disorders, a three-chamber test was performed using an animal model lacking Cntnap2. FIG. 5 is a result of evaluating whether or not the time spent with a novel mouse is longer than that of a familiar mouse after exploring a stimulus mouse (familiar) for 10 minutes in the experimental animal, and after adding a new stimulus mouse (novel) together for 10 minutes. In this case, the old mouse is called familiar, and the new mouse is called novel. […] Experimental results were expressed as a preference index by measuring the time the test mouse explores each mouse or the sniffing time to each mouse. The higher the preference index, the more time spent with the novel mouse than with the familiar mouse, or the more time spent sniffing with the novel mouse than with the familiar mouse. […] Through this, it was confirmed that rilmenidine treatment can improve sociability (FIG. 5).
# [2] = tested on: Fmr1-deficient animal model; test: three-chamber test, sociability in fragile X syndrome animal model; format: in vivo; details: rilmenidine intraperitoneally (1 mg/kg / 50 ug/kg printed), 30 minutes after administration, FIG. 1
# Description: Purchased a 5-week-old Fmr 1 knockout mouse (Jackson Laboratory, USA) weighing about 22 g to 24 g, and acclimatized to an environment with a temperature of 23±2° C. and humidity of 55±10% and a light-dark cycle of 12 hours while allowing them to freely consume water and feed. After breeding (Konkuk University Laboratory Animal Center), they were used for experiments. For all animals, wild-type (WT) with normal FMRP expression and male KO mice lacking FMRP (Fragile X mental retardation protein) expression (which induces Fragile X Syndrome (FXS)) were used. Dosing and experiments were performed according to the age of the week. Dosing was performed at the same time. Behavioral experiments were conducted 30 minutes after administration. It was divided into groups administered with 1 mg/kg each of rilmenidine (Sigma Aldrich) in FMRP expression-deficient knock-out (Knock-Out) mice, wild-type (Wild Type) mice, and 0.25 DMSO in FMRP expression-deficient knock-out mice (6 mice per group). For the drug administration group, rilmenidine was dissolved in 0.25% DMSO and then administered intraperitoneally at a dose of 50 ug/kg. Meanwhile, 0.25% DMSO was intraperitoneally administered to the control group. […] The time the test mouse explored each stimulus mouse was measured and expressed as %.
# [3] = tested on: animal model lacking Cntnap2; test: three-chamber test, sociability index in Cntnap2-deficient autism animal model; format: in vivo, mouse; details: Cntnap2-deficient mice treated with rilmenidine, FIG. 4
# Description: To confirm the therapeutic effect of rilmenidine on social deficits, one of the phenotypes of developmental disorders, a three-chamber test was performed using an animal model lacking Cntnap2. The sociability index of FIG. 4 represents a value obtained by dividing stranger (retention time for a mouse) by empty (retention time for an empty space).
# [4] = tested on: animal model treated with MK-801 in wild-type mice; test: pre-pulse suppression (startle response) test in MK-801 treated animal model; format: in vivo, mouse; details: wild-type mice treated with MK-801 and then rilmenidine intraperitoneally, FIG. 2
# Description: The startle response was confirmed in an animal model treated with MK-801 in wild-type mice. Mice were divided into groups, and 0.9% physiological saline (saline solution), rilmenidine, or a positive control drug (aripiprazole) was intraperitoneally administered to each group. Then, sensorimotor gating was evaluated through a pre-wave suppression test (converted using Equation 1). […] Pre-pulse suppression (%)=100−[(startle response to pre-stimulus+stimulus)/(startle response to stimulus)]*100 [Equation 1] Confirmation of Cognitive Improvement Effect of Rilmenidine
# [5] = tested on: animal model treated with MK-801 in wild-type mice; test: novel object recognition test in MK-801 treated animal model; format: in vivo, mouse; details: wild-type mice treated with MK-801 and then rilmenidine (0.3 mg/kg), test 24 hours after training, FIG. 3
# Description: The cognitive improvement effect of rilmenidine was confirmed using an animal model treated with MK-801 in wild-type mice. The experiment was a novel object recognition test, where two identical objects were placed in the same location and trained, and 24 hours later, one identical object (familiar) and the other new object (novel) were put in, and the cognitive ability of the animal was tested by evaluating whether they could distinguish between familiar and new objects.
structure (smiles),measurement,setting,value
"C1COC(NC(C2CC2)C2CC2)=N1 [rilmenidine, N-(dicyclopropylmethyl)-4,5-dihydro-1,3-oxazol-2-amine]",preference index: sniffing time to novel mouse vs familiar mouse,[1],sniffed more
same,preference index: time spent with novel mouse vs familiar mouse,[1],spent more time
same,time the test mouse explored novel vs familiar stimulus mouse (sociability),[2],more time was spent with the novel mouse than with the familiar mouse
same,sociability index: retention time for mouse (stranger) vs empty space,[3],the retention time for the mouse was longer than the retention time for the empty space
same,pre-pulse suppression,[4],the reduced pre-pulse suppression was restored
same,ability to distinguish novel object from familiar object (cognitive improvement),[5],the ability to distinguish novel objects was improved
